Counter-ions that a name gives are not always drawn.
Assay: in vitro
Details: rat, gh3-tre-luc cells

## CCCCCC(C=O)=Cc1ccccc1 [Pentylcinnamaldehyde]
AC50 (uM) modified / 1000
  CC50 at 24 h: > 90 µM

## Clc1ccc(C(Cl)(Cl)Cl)c(Cl)c1 [2,4-Dichloro-1-(trichloromethyl)benzene]
AC50 (uM) modified / 1000
  CC50 at 24 h: > 90 µM

## Cc1ccc(Cl)c(O)c1 [2-Chloro-5-methylphenol]
AC50 (uM) modified / 1000
  CC50 at 24 h: > 50 µM

## CCCCCCC(O)CCCCCCCCCCC(=O)O (stereo not shown) [12-Hydroxyoctadecanoic acid]
AC50 (uM) modified / 1000
  CC50 at 24 h: > 90 µM

## CC(C)N(c1ccccc1)C(C)C [N,N-Diisopropylaniline]
AC50 (uM) modified / 1000
  CC50 at 24 h: > 90 µM

## N[C@H](CCC(=O)O)C(=O)O [D-Glutamic acid]
AC50 (uM) modified / 1000
  CC50 at 24 h: > 50 µM

## OCCOCCO [Diethylene glycol]
AC50 (uM) modified / 1000
  CC50 at 24 h: > 90 µM

## CCN(CCCCOC(=O)c1ccc(OC)c(OC)c1)C(C)Cc1ccc(OC)cc1 (stereo not shown) [Mebeverine hydrochloride]
AC50 (uM) modified / 1000
  CC50 at 24 h: > 20 µM

## COC(=O)[C@@H](N)CCCNC(=N)N[N+](=O)[O-] [L-Nitroarginine methyl ester]
AC50 (uM) modified / 1000
  CC50 at 24 h: > 50 µM

## CCCN(CCc1cccs1)[C@H]1CCc2c(O)cccc2C1 [Rotigotine]
AC50 (uM) modified / 1000
  CC50 at 24 h: 40.9 µM

## CC(C)(O)C(=O)Nc1ccc([N+](=O)[O-])c(C(F)(F)F)c1 [Hydroxyflutamide]
AC50 (uM) modified / 1000
  CC50 at 24 h: > 90 µM

## CCOC(=O)C1(c2ccccc2)CCCN(C)CC1 (stereo not shown) [Ethoheptazine hydrochloride]
AC50 (uM) modified / 1000, Tox21_110001=Tox21_113227, viability, 1 nM T3 present, 24 h
  CC50 at 24 h: > 50 µM

## COS(=O)(=O)OC [Dimethyl sulfate]
AC50 (uM) modified / 1000
  CC50 at 24 h: > 90 µM

## COc1cc(OC)nc(NC(=O)NS(=O)(=O)c2ncccc2OCC(F)(F)F)n1 [Trifloxysulfuron-sodium]
AC50 (uM) modified / 1000, Tox21_110001=Tox21_301184, viability, 1 nM T3 present, 24 h
  CC50 at 24 h: > 90 µM

## Nc1ccc(C(=O)Oc2ccccc2)c(O)c1 [Phenyl 4-aminosalicylate]
AC50 (uM) modified / 1000
  CC50 at 24 h: > 50 µM

## CCC(C=O)CC [2-Ethylbutyraldehyde]
AC50 (uM) modified / 1000
  CC50 at 24 h: > 90 µM

## Cc1ccnc2ccccc12 [Lepidine]
AC50 (uM) modified / 1000
  CC50 at 24 h: > 90 µM

## COC(=O)c1ccccc1S(=O)(=O)NC(=O)Nc1nc(C)nc(OC)n1 [Metsulfuron-methyl]
AC50 (uM) modified / 1000
  CC50 at 24 h: > 90 µM

## CC(=O)Oc1ccc(C(C)=O)cc1 [4-Acetylphenyl acetate]
AC50 (uM) modified / 1000
  CC50 at 24 h: > 100 µM

## C[C@]12CC[C@@H]3c4ccc(O)cc4CC[C@H]3[C@@H]1CC[C@@H]2OP(=O)(O)O [Estradiol phosphate]
AC50 (uM) modified / 1000
  CC50 at 24 h: > 50 µM

## Cc1c(O)cccc1O [2-Methyl-1,3-benzenediol]
AC50 (uM) modified / 1000
  CC50 at 24 h: > 90 µM

## Nc1ccc(-c2ccccc2)cc1 [4-Biphenylamine]
AC50 (uM) modified / 1000, Tox21_110001=Tox21_200376, viability, 1 nM T3 present, 24 h
  CC50 at 24 h: > 90 µM

## CC(C)(C)C(=O)C(=O)O [3,3-Dimethyl-2-oxobutyric acid]
AC50 (uM) modified / 1000
  CC50 at 24 h: > 90 µM

## Cc1ccccc1N [2-Methylaniline]
AC50 (uM) modified / 1000, Tox21_110001=Tox21_201256, viability, 1 nM T3 present, 24 h
  CC50 at 24 h: > 90 µM

## N=C(Nc1ccccc1)Nc1ccccc1 [1,3-Diphenylguanidine]
AC50 (uM) modified / 1000
  CC50 at 24 h: > 50 µM

## CC(C)C1(C)N=C(c2nc3ccccc3cc2C(=O)O)NC1=O (stereo not shown) [Imazaquin]
AC50 (uM) modified / 1000
  CC50 at 24 h: > 90 µM

## C1CCC2CCCCC2C1 (stereo not shown) [Decalin]
AC50 (uM) modified / 1000
  CC50 at 24 h: > 90 µM

## Cc1ccc(N)c([N+](=O)[O-])c1 [4-Methyl-2-nitroaniline]
AC50 (uM) modified / 1000
  CC50 at 24 h: > 90 µM

## c1cc2c(c(N3CCNCC3)c1)OCCO2 [Eltoprazine hydrochloride]
AC50 (uM) modified / 1000, Tox21_110001=Tox21_111742, viability, 1 nM T3 present, 24 h
  CC50 at 24 h: > 50 µM

## CC(C)NCC(O)c1ccc(O)c(O)c1 (stereo not shown) [Isoproterenol hydrochloride]
AC50 (uM) modified / 1000
  CC50 at 24 h: > 90 µM

## CC=C1CC2C=CC1C2 (stereo not shown) [5-Ethylidene-2-norbornene]
AC50 (uM) modified / 1000
  CC50 at 24 h: > 90 µM

## CCOC(CN1CCN(CC(C)C(=O)c2ccccc2)CC1)c1ccccc1 (stereo not shown) [Eprazinone dihydrochloride]
AC50 (uM) modified / 1000
  CC50 at 24 h: > 50 µM

## N#CSCSc1nc2ccccc2s1 [2-(Thiocyanomethylthio)benzothiazole]
AC50 (uM) modified / 1000
  CC50 at 24 h: 3.06 µM

## CC(=O)Oc1ccc(C(=C2CCCCC2)c2ccc(OC(C)=O)cc2)cc1 [Cyclofenil]
AC50 (uM) modified / 1000
  CC50 at 24 h: > 50 µM

## CCCCOCCOC(=O)CCCCCCCCC(=O)OCCOCCCC [Bis(2-butoxyethyl) decanedioate]
AC50 (uM) modified / 1000
  CC50 at 24 h: > 90 µM

## CC1(C)S[C@@H]2[C@H](NC(=O)C(C(=O)O)c3ccccc3)C(=O)N2[C@H]1C(=O)O (stereo partly shown) [Carbenicillin disodium]
AC50 (uM) modified / 1000
  CC50 at 24 h: > 50 µM

## COCc1cnc(C2=NC(C)(C(C)C)C(=O)N2)c(C(=O)O)c1 (stereo not shown) [Imazamox]
AC50 (uM) modified / 1000
  CC50 at 24 h: > 90 µM

## CC(CCO)CCc1ccccc1 (stereo not shown) [3-Methyl-5-phenylpentan-1-ol]
AC50 (uM) modified / 1000
  CC50 at 24 h: > 90 µM

## COc1c(Cl)c(Cl)c(Cl)c(Cl)c1Cl [Pentachloroanisole]
AC50 (uM) modified / 1000
  CC50 at 24 h: > 90 µM

## CCCCN(CCCC)CCCOC(=O)c1ccc(N)cc1 [Butacaine]
AC50 (uM) modified / 1000
  CC50 at 24 h: > 20 µM

## CC(=O)C(C)O (stereo not shown) [Acetoin]
AC50 (uM) modified / 1000
  CC50 at 24 h: > 90 µM

## O=C(Oc1ccccc1)c1ccc(O)cc1 [Phenylparaben]
AC50 (uM) modified / 1000
  CC50 at 24 h: > 90 µM

## CC(=O)Nc1ccc(S(=O)(=O)Nc2ccc([N+](=O)[O-])cc2)cc1 [Sulfanitran]
AC50 (uM) modified / 1000
  CC50 at 24 h: > 50 µM

## O=C(O)c1cccc(N(Cc2cccnc2)c2ccc(OC(F)F)c(OC(F)F)c2)c1 [PharmaGSID_48510]
AC50 (uM) modified / 1000
  CC50 at 24 h: 75.3 µM

## Cc1cccc(C)c1O [2,6-Dimethylphenol]
AC50 (uM) modified / 1000
  CC50 at 24 h: > 90 µM

## CCC(=O)O[C@@H]1C[C@H]2CC[C@]1(C)C2(C)C (racemic) [Isobornyl propanoate]
AC50 (uM) modified / 1000
  CC50 at 24 h: > 90 µM

## Nc1cccc(C(F)(F)F)c1 [3-(Trifluoromethyl)aniline]
AC50 (uM) modified / 1000
  CC50 at 24 h: > 90 µM

## O=[N+]([O-])c1ccc(CCl)cc1 [4-Nitrobenzyl chloride]
AC50 (uM) modified / 1000, Tox21_110001=Tox21_200572, viability, 1 nM T3 present, 24 h
  CC50 at 24 h: > 90 µM

## CCCCCCCCCCCCCC(=O)OCC(COP(=O)([O-])OCC[N+](C)(C)C)OC(=O)CCCCCCCCCCCCC (racemic) [1,2-Ditetradecanoyl-rac-glycerol-3-phosphocholine]
AC50 (uM) modified / 1000
  CC50 at 24 h: > 50 µM

## CCCCOCC1CO1 (stereo not shown) [Butyl glycidyl ether]
AC50 (uM) modified / 1000
  CC50 at 24 h: > 90 µM

## O=[N+]([O-])c1ccc(F)cc1F [2,4-Difluoronitrobenzene]
AC50 (uM) modified / 1000
  CC50 at 24 h: > 90 µM

## CCCCC(=O)O[C@]1(C(=O)CO)CC[C@H]2[C@@H]3CCC4=CC(=O)CC[C@]4(C)[C@H]3[C@@H](O)C[C@@]21C [Hydrocortisone valerate]
AC50 (uM) modified / 1000
  CC50 at 24 h: > 50 µM

## C=CC(C)CCCC(C)(C)O (stereo not shown) [1,1,5-Trimethyl-6-heptenol]
AC50 (uM) modified / 1000
  CC50 at 24 h: > 90 µM

## O=C(Oc1ccccc1C(=O)O)c1ccccc1O [Salsalate]
AC50 (uM) modified / 1000
  CC50 at 24 h: > 50 µM

## COC[C@@H](c1ccc(C(F)(F)F)cc1)N1CCN(C2(C)CCN(C(=O)c3c(C)ncnc3C)CC2)C[C@@H]1C [Vicriviroc maleate]
AC50 (uM) modified / 1000
  CC50 at 24 h: > 50 µM

## OCC1CCC(CO)CC1 (stereo not shown) [1,4-Cyclohexanedimethanol]
AC50 (uM) modified / 1000
  CC50 at 24 h: > 90 µM

## Oc1c(Cl)cccc1Cl [2,6-Dichlorophenol]
AC50 (uM) modified / 1000
  CC50 at 24 h: > 90 µM

## CC(O)CC(C)(C)O (stereo not shown) [2-Methyl-2,4-pentanediol]
AC50 (uM) modified / 1000
  CC50 at 24 h: > 90 µM

## Nc1nc(N)nc(Cl)n1 [2-Chloro-4,6-diamino-1,3,5-triazine]
AC50 (uM) modified / 1000, Tox21_110001=Tox21_301105, viability, 1 nM T3 present, 24 h
  CC50 at 24 h: > 90 µM

## c1ccc(COCc2ccccc2)cc1 [Dibenzyl ether]
AC50 (uM) modified / 1000
  CC50 at 24 h: > 100 µM

## CC(C)NCC(O)c1cc(O)cc(O)c1 (stereo not shown) [Orciprenaline sulfate]
AC50 (uM) modified / 1000
  CC50 at 24 h: > 50 µM

## CC(C)Cc1ccc(C(C)C(=O)O)cc1 (stereo not shown) [Ibuprofen]
AC50 (uM) modified / 1000
  CC50 at 24 h: > 90 µM

## CCCCCN(CCCCC)C(=O)C(CCC(=O)O)NC(=O)c1ccc(Cl)c(Cl)c1 (stereo not shown) [Lorglumide sodium]
AC50 (uM) modified / 1000
  CC50 at 24 h: > 50 µM

## C=CC(=O)OCCOC(=O)CCC(=O)O [4-[2-(Acryloyloxy)ethoxy]-4-oxobutanoic acid]
AC50 (uM) modified / 1000
  CC50 at 24 h: > 90 µM

## Cc1c(OCC(F)(F)F)ccnc1C[S+]([O-])c1nc2ccccc2[nH]1 (stereo not shown) [Lansoprazole]
AC50 (uM) modified / 1000
  CC50 at 24 h: > 90 µM

## CCCCCCCCCCCCN1CCCCCC1=O [Laurocapram]
AC50 (uM) modified / 1000
  CC50 at 24 h: 45.3 µM

## COC(=O)c1ccccc1C(=O)OC [Dimethyl phthalate]
AC50 (uM) modified / 1000
  CC50 at 24 h: > 50 µM

## CC(=O)[C@H]1CC[C@H]2[C@@H]3C[C@H](C)C4=CC(=O)CC[C@]4(C)[C@H]3[C@@H](O)C[C@]12C [Medrysone]
AC50 (uM) modified / 1000
  CC50 at 24 h: > 20 µM

## O=C(O)/C=C/c1c[nH]cn1 [Urocanic acid]
AC50 (uM) modified / 1000
  CC50 at 24 h: > 90 µM

## O=C(O)C(F)(F)C(F)(F)C(F)(F)C(F)(F)C(F)(F)C(F)(F)C(F)(F)F [Ammonium perfluorooctanoate]
AC50 (uM) modified / 1000, Tox21_110001=Tox21_300595, viability, 1 nM T3 present, 24 h
  CC50 at 24 h: > 90 µM

## CCCCCC(C)OC(=O)COc1ccc(Cl)c2cccnc12 (stereo not shown) [Cloquintocet-mexyl]
AC50 (uM) modified / 1000
  CC50 at 24 h: 71.4 µM

## CC(=O)O[Si](C)(OC(C)=O)OC(C)=O [Methylsilanetriyl triacetate]
AC50 (uM) modified / 1000
  CC50 at 24 h: > 90 µM

## Cc1cccc([N+](=O)[O-])c1C(=O)O [2-Methyl-6-nitrobenzoic acid]
AC50 (uM) modified / 1000
  CC50 at 24 h: > 90 µM

## CCCCCCCCCCC=O [Undecanal]
AC50 (uM) modified / 1000
  CC50 at 24 h: > 90 µM

## CC/C=C\CCOC(C)OCC (stereo not drawn) [Acetaldehyde ethyl cis-3-hexenyl acetal]
AC50 (uM) modified / 1000
  CC50 at 24 h: > 70 µM

## OCC(CO)(CO)CO [Pentaerythritol]
AC50 (uM) modified / 1000
  CC50 at 24 h: > 100 µM
